This experiment has as its system Mycobacterium tuberculosis. Description: Antitubercular activity against isoniazid-resistant Mycobacterium tuberculosis clinical isolate measured after 1 week by microplate alamar blue assay. The class given is functional. Particulars: 168 h, time 1 weeks. A general note: Resazurin is reduced to fluorescent resorufin, in cell work by metabolically active cells.

≈ marks a conversion by molar mass, not a printed value.

As for `COc1ccc(NC(=S)Nc2nnc(-c3ccc([N+](=O)[O-])o3)s2)cc1`, the MIC – broadly, the least concentration at which growth counts as inhibited – came to 7.81 µM (≈ 2.95 µg/mL). The same measure for `CO[C@H]1/C=C/O[C@@]2(C)Oc3c(C)c(O)c4c(O)c(c(/C=N/N5CCN(C)CC5)c(O)c4c3C2=O)NC(=O)/C(C)=C\C=C\[C@H](C)[C@H](O)[C@@H](C)[C@@H](O)[C@@H](C)[C@H](OC(C)=O)[C@@H]1C` [RIFAMPIN]: 0.5 µM (≈ 0.411 µg/mL); for `NNC(=O)c1ccncc1` [ISONIAZID]: 12.5 µM (≈ 1.71 µg/mL). Then `O=[N+]([O-])c1ccc(-c2nnc(NC(=S)Nc3ccc(Cl)cc3)s2)s1`, with 12.5 µM (≈ 4.97 µg/mL); and `CC[C@@H](CO)NCCN[C@@H](CC)CO` [ETHAMBUTOL], with 7.63 µM (≈ 1.56 µg/mL). Compound `COc1ccc(NC(=S)Nc2nnc(-c3ccc([N+](=O)[O-])s3)s2)cc1` yielded an MIC of 0.2 µM (≈ 0.0787 µg/mL).

Compound `O=[N+]([O-])c1ccc(-c2nnc(NC(=S)Nc3ccc(F)cc3)s2)o1` showed an MIC of 0.78 µM (≈ 0.285 µg/mL).

`CC(=O)c1ccc(S(=O)(=O)Nc2nnc(-c3ccc([N+](=O)[O-])o3)s2)cc1` showed a minimum inhibitory concentration (MIC) of 12.5 µM (≈ 4.93 µg/mL).

These data come from ChEMBL document CHEMBL4680225, “Design and development of ((4-methoxyphenyl)carbamoyl) (5-(5-nitrothiophen-2-yl)-1,3,4-thiadiazol-2-yl)amide analogues as Mycobacterium tuberculosis ketol-acid reductoisomerase inhibitors” (Eur J Med Chem, 2020).
